From US7714135B2, “Tetrahydropyridothiophenes for the treatment of proliferative diseases such as cancer” (4SC AG, priority 2005, dated 2010) come the findings set out here.

The subject of experiment [1] is RKO colon adenocarcinoma cells (RKOp27) arrested by the expression of ectopic p27Kip1. The experiment is described as follows: Alamar Blue cell viability assay on RKOp27 cells arrested by Ponasterone A-induced p27Kip1 expression (cell cycle specific mode of action). The following applies: Homo sapiens, RKOp27 subclone induced with 10 μM Ponasterone A, 72 hours incubation, read-out: IC50 RKO p27 induced (arrested). Type of experiment: cell-based. As to the method:
To determine the cell cycle specific mode of action, subclones of RKO colon adenocarcinoma cells (RKOp27 or RKOp21 as described by Schmidt et al. in Oncogene 19, 2423-2429; 2000) are seeded into 96 well flat bottom plates at a density of 16000 cells per well in a volume of 50 μl per well in DMEM growth medium with 10% FCS containing 10 μM Ponasterone A. 24 hours after seeding the 50 μl each of the compound dilutions in DMEM medium are added into each well of the 96 Well plate. Each compound dilution is tested as quadruplicates. Wells containing untreated control cells are filled with 50 μl DMEM medium containing 1% DMSO. The cells are then incubated with the substances for 72 hours at 37° C. in a humidified atmosphere containing 5% carbon dioxide. To determine the viability of the cells, 10 μl of an Alamar Blue solution (Biosource) are added and the fluorescence was measured at an extinction of 544 nm and an emission of 590 nm. For the calculation of the cell viability the emission value from untreated cells is set as 100% viability and the emission rates of treated cells are set in relation to the values of untreated cells. Viabilities are expressed as % values. Viability is compared of proliferating cells grown in the absence of the inducer Ponasterone A, versus viability of cells arrested by the expression of ectopic p27Kip1 induced by Ponasterone A.
(In general: The colour change of resazurin is a common sign of viable cells or microbes.)

The subject of experiment [2] is RKO (RKOp27) human colon adenocarcinoma cells. The experiment is described as follows: Alamar Blue cell viability assay, anti-proliferative/cytotoxic activity on proliferating (uninduced) RKOp27 cells. Type of experiment: cell-based. The following applies: RKOp27 subclone without inducer, 72 hours incubation, read-out: IC50 RKO p27 uninduced (proliferating). As to the method:
The anti-proliferative/cytotoxic activity of the compounds described herein, can be tested on subclones of RKO (RKOp27) human colon adenocarcinoma cells (Schmidt et al., Oncogene 19, 2423-2429; 2000) using the Alamar Blue cell viability assay (described in O'Brien et al. Eur J Biochem 267, 5421-5426, 2000). The compounds are dissolved as 20 mM solutions in dimethylsulfoxide (DMSO) and subsequently diluted in semi-logarithmic steps. DMSO dilutions are further diluted 1:100 into Dulbecco's modified Eagle's medium (DMEM) containing 10% fetal calf serum to a final concentration twice as much as the final concentration in the test. RKO subclones are seeded into 96 well flat bottom plates at a density of 4000 cells per well in a volume of 50 μl per well. 24 hours after seeding the 50 μl each of the compound dilutions in DMEM medium are added into each well of the 96 Well plate. Each compound dilution is tested as quadruplicates. Wells containing untreated control cells are filled with 50 μl DMEM medium containing 1% DMSO. The cells are then incubated with the substances for 72 hours at 37° C. in a humidified atmosphere containing 5% carbon dioxide. To determine the viability of the cells, 10 μl of an Alamar Blue solution (Biosource) are added and the fluorescence is measured at an extinction of 544 nm and an emission of 590 nm. For the calculation of the cell viability the emission value from untreated cells is set as 100% viability and the emission rates of treated cells are set in relation to the values of untreated cells. Viabilities are expressed as % values.
The corresponding IC50 values of the compounds for anti-proliferative/cytotoxic activity are determined from the concentration-effect curves.
Representative IC50 values for anti-proliferation/cytotoxicity determined in the mentioned assay follow from the following table A, in which the numbers of the compound correspond to the numbers of the examples.

With `CCOC(=O)N1CCc2c(sc(NC(=O)CC(C)c3ccccc3)c2C#N)C1` (racemic) [Example 4, 3-Cyano-2-((RS)-3-phenyl-butanoylamino)-4,7-dihydro-5H-thieno[2,3-c]pyridine-6-carboxylic acid ethyl ester], the IC50 in experiment [1] was greater than 100000 nM; in experiment [2], no more than 300 nM.
Taken in the same sequence, the figures for `CCOC(=O)N1CCc2c(sc(NC(=O)CC(C)c3cccnc3)c2C#N)C1` (racemic) [Example 49, 3-Cyano-2-((RS)-3-pyridin-3-yl-butanoylamino)-4,7-dihydro-5H-thieno[2,3-c]pyridine-6-carboxylic acid ethyl ester] were greater than 100000 nM and 300 to 2000 nM.
Regarding `CC(CC(=O)Nc1sc2c(c1C#N)CCN(C(=O)OCCc1ccncc1)C2)c1cccnc1` (racemic) [Example 76, 3-Cyano-2-((RS)-3-pyridin-3-yl-butanoylamino)-4,7-dihydro-5H-thieno[2,3-c]pyridine-6-carboxylic acid 2-pyridin-4-yl-ethyl ester], the IC50 in experiment [1] was no less than 40000 nM; in experiment [2] it was 300 to 2000 nM.
As to `CC(CC(=O)Nc1sc2c(c1C#N)CCN(C(=O)OCCc1cccnc1)C2)c1ccccc1` (racemic) [Example 92, 3-Cyano-2-((RS)-3-phenyl-butanoylamino)-4,7-dihydro-5H-thieno[2,3-c]pyridine-6-carboxylic acid 2-pyridin-3-yl-ethyl ester], the figures for the IC50 in experiment [1] and in experiment [2] were greater than 100000 nM and no more than 300 nM, respectively.
As for `CC(CC(=O)Nc1sc2c(c1C#N)CCN(C(=O)OCCn1ccnc1)C2)c1ccccc1` (racemic) [Example 96, 3-Cyano-2-((RS)-3-phenyl-butanoylamino)-4,7-dihydro-5H-thieno[2,3-c]pyridine-6-carboxylic acid 2-imidazol-1-yl-ethyl ester], the figures for the IC50 in experiment [1] and in experiment [2] were greater than 100000 nM and no more than 300 nM, respectively.
On the same counts, the results for `CCOC(=O)N1CCc2c(sc(NC(=O)CCc3ccccc3)c2C#N)C1` [Example 1, 3-Cyano-2-(3-phenyl-propanoylamino)-4,7-dihydro-5H-thieno[2,3-c]pyridine-6-carboxylic acid ethyl ester] are greater than 100000 nM and no more than 300 nM.
Taken in the same sequence, the figures for `CCOC(=O)N1CCc2c(sc(NC(=O)C3CC3c3ccccc3)c2C#N)C1` (stereo not drawn) [Example 2, 3-Cyano-2-{[1-(2-phenyl-cyclopropyl)-methanoyl]-amino}-4,7-dihydro-5H-thieno[2,3-c]pyridine-6-carboxylic acid ethyl ester] were greater than 100000 nM and no more than 300 nM.
Taken in the same sequence, the figures for `CCOC(=O)N1CCc2c(sc(NC(=O)CCc3ccccc3C)c2C#N)C1` [Example 3, 3-Cyano-2-(3-o-tolyl-propanoylamino)-4,7-dihydro-5H-thieno[2,3-c]pyridine-6-carboxylic acid ethyl ester] were greater than 100000 nM and no more than 300 nM.
With `CCOC(=O)N1CCc2c(sc(NC(=O)CCc3ccco3)c2C#N)C1` [Example 5, 3-Cyano-2-(3-furan-2-yl-propanoylamino)-4,7-dihydro-5H-thieno[2,3-c]pyridine-6-carboxylic acid ethyl ester], the IC50 in experiment [1] was greater than 100000 nM; in experiment [2], no more than 300 nM.
`CCOC(=O)N1CCc2c(sc(NC(=O)C(C)Cc3ccccc3)c2C#N)C1` (stereo not drawn) [Example 6, 3-Cyano-2-(2-methyl-3-phenyl-propanoylamino)-4,7-dihydro-5H-thieno[2,3-c]pyridine-6-carboxylic acid ethyl ester]: the IC50 in experiment [1] was greater than 100000 nM; in experiment [2], 300 to 2000 nM.
Regarding `CCOC(=O)N1CCc2c(sc(NC(=O)CCc3cccs3)c2C#N)C1` [Example 7, 3-Cyano-2-(3-thiophen-2-yl-propanoylamino)-4,7-dihydro-5H-thieno[2,3-c]pyridine-6-carboxylic acid ethyl ester], the IC50 in experiment [1] was greater than 100000 nM; in experiment [2], no more than 300 nM.
`CCOC(=O)N1CCc2c(sc(NC(=O)CCc3ccc(F)cc3)c2C#N)C1` [Example 8, 3-Cyano-2-(3-(4-fluoro-phenyl)-propanoylamino)-4,7-dihydro-5H-thieno[2,3-c]pyridine-6-carboxylic acid ethyl ester]: the IC50 in experiment [1] was greater than 100000 nM; in experiment [2], no more than 300 nM.
On the same counts, the results for `CCOC(=O)N1CCc2c(sc(NC(=O)CCc3cccnc3)c2C#N)C1` [Example 9, 3-Cyano-2-(3-pyridin-3-yl-propanoylamino)-4,7-dihydro-5H-thieno[2,3-c]pyridine-6-carboxylic acid ethyl ester] are greater than 100000 nM and 300 to 2000 nM.
Regarding `CCOC(=O)N1CCc2c(sc(NC(=O)CCc3ccccc3F)c2C#N)C1` [Example 10, 3-Cyano-2-(3-(2-fluoro-phenyl)-propanoylamino)-4,7-dihydro-5H-thieno[2,3-c]pyridine-6-carboxylic acid ethyl ester], the IC50 is greater than 100000 nM in experiment [1] and no more than 300 nM in experiment [2].
On the same counts, the results for `CCOC(=O)N1CCc2c(sc(NC(=O)CCc3cc(C)c(C)o3)c2C#N)C1` [Example 11, 3-Cyano-2-[3-(4,5-dimethyl-furan-2-yl)-propanoylamino]-4,7-dihydro-5H-thieno[2,3-c]pyridine-6-carboxylic acid ethyl ester] are greater than 100000 nM and no more than 300 nM.
On to `CCOC(=O)N1CCc2c(sc(NC(=O)CCc3cccc(F)c3)c2C#N)C1` [Example 12, 3-Cyano-2-[3-(3-fluoro-phenyl)-propanoylamino]-4,7-dihydro-5H-thieno[2,3-c]pyridine-6-carboxylic acid ethyl ester], for which the IC50 in experiment [1] is greater than 100000 nM; in experiment [2] it was no more than 300 nM.
Taken in the same sequence, the figures for `CCOC(=O)N1CCc2c(sc(NC(=O)CCc3ccccc3Cl)c2C#N)C1` [Example 13, 2-[3-(2-Chloro-phenyl)-propanoylamino]-3-cyano-4,7-dihydro-5H-thieno[2,3-c]pyridine-6-carboxylic acid ethyl ester] were greater than 100000 nM and no more than 300 nM.
On the same counts, the results for `CCOC(=O)N1CCc2c(sc(NC(=O)CCc3ccc(C)cc3)c2C#N)C1` [Example 14, 3-Cyano-2-(3-p-tolyl-propanoylamino)-4,7-dihydro-5H-thieno[2,3-c]pyridine-6-carboxylic acid ethyl ester] are greater than 100000 nM and no more than 300 nM.
Taken in the same sequence, the figures for `CC(C)(C)OC(=O)N1CCc2c(sc(NC(=O)CCc3cccnc3)c2C#N)C1` [Example 15, 3-Cyano-2-(3-pyridin-3-yl-propanoylamino)-4,7-dihydro-5H-thieno[2,3-c]pyridine-6-carboxylic acid tert-butyl ester] were greater than 100000 nM and no more than 300 nM.
With `CCOC(=O)N1CCc2c(sc(NC(=O)CCc3cccc(Cl)c3)c2C#N)C1` [Example 16, 2-[3-(3-Chloro-phenyl)-propanoylamino]-3-cyano-4,7-dihydro-5H-thieno[2,3-c]pyridine-6-carboxylic acid ethyl ester], the results for the IC50 in experiment [1] and in experiment [2] were greater than 100000 nM and no more than 300 nM, respectively.
`CCOC(=O)N1CCc2c(sc(NC(=O)CCc3ccc(Cl)cc3)c2C#N)C1` [Example 17, 2-[3-(4-Chloro-phenyl)-propanoylamino]-3-cyano-4,7-dihydro-5H-thieno[2,3-c]pyridine-6-carboxylic acid ethyl ester]: the IC50 in experiment [1] is greater than 100000 nM; in experiment [2] it was no more than 300 nM.

A word on the IC50: it is the point on the concentration scale where inhibition reaches its midpoint.
